Results as given in the NIST ThermoML archive (doi:10.1016/j.jct.2013.09.007).
Numbers after ± are expanded uncertainties.

Experiment: activity coefficient (dimensionless); of the first substance listed, at infinite dilution; xn = mol fraction of the nth substance listed
Conditions: 101 kPa, Liquid, Chromatography, x1 = 0

Row | SMILES | activity coefficient (338.15 K) | activity coefficient (348.15 K) | activity coefficient (358.15 K) | activity coefficient (368.15 K) | activity coefficient (308.15 K) | activity coefficient (318.15 K) | activity coefficient (328.15 K)
1 | CCCCO [butan-1-ol] + CCCC[n+]1cccc(C)c1.N#C[N-]C#N | 0.88 ± 0.056 | 0.855 ± 0.055 | 0.84 ± 0.054 | 0.814 ± 0.053 | – | – | –
2 | C#CCCC [1-pentyne] + CCCC[n+]1cccc(C)c1.N#C[N-]C#N | 3.14 ± 0.21 | 3.21 ± 0.22 | 3.28 ± 0.22 | 3.35 ± 0.23 | 2.9 ± 0.2 | 2.97 ± 0.2 | 3.05 ± 0.21
3 | CCCCCCCC [octane] + CCCC[n+]1cccc(C)c1.N#C[N-]C#N | 92.7 ± 6.4 | 85.2 ± 5.8 | 79 ± 5.4 | 73.3 ± 5 | 123 ± 8 | 111 ± 8 | 101 ± 7
4 | CCc1ccccc1 [ethylbenzene] + CCCC[n+]1cccc(C)c1.N#C[N-]C#N | 3.26 ± 0.22 | 3.32 ± 0.23 | 3.35 ± 0.23 | 3.41 ± 0.23 | – | – | 3.21 ± 0.22
5 | C1CCCCCC1 [cycloheptane] + CCCC[n+]1cccc(C)c1.N#C[N-]C#N | 22.1 ± 1.5 | 20.7 ± 1.4 | 19.5 ± 1.3 | 18.5 ± 1.3 | 27.3 ± 1.9 | 25.2 ± 1.7 | 23.6 ± 1.6
6 | C=CCCCCC [1-heptene] + CCCC[n+]1cccc(C)c1.N#C[N-]C#N | 28.3 ± 1.9 | 27 ± 1.8 | 25.9 ± 1.8 | 24.8 ± 1.7 | 33.1 ± 2.3 | 31.2 ± 2.1 | 29.7 ± 2
7 | Cc1ccccc1C [1,2-dimethylbenzene] + CCCC[n+]1cccc(C)c1.N#C[N-]C#N | 2.51 ± 0.17 | 2.58 ± 0.18 | 2.64 ± 0.18 | 2.71 ± 0.18 | – | – | 2.47 ± 0.17
8 | CC(C)=O [acetone] + CCCC[n+]1cccc(C)c1.N#C[N-]C#N | 0.968 ± 0.061 | 0.999 ± 0.062 | 1.03 ± 0.06 | 1.04 ± 0.07 | – | – | 0.946 ± 0.06
9 | CCC(C)CC [3-methylpentane] + CCCC[n+]1cccc(C)c1.N#C[N-]C#N | 39.8 ± 2.7 | 36.9 ± 2.5 | 34.7 ± 2.4 | 32.4 ± 2.2 | 50.9 ± 3.5 | 47 ± 3.2 | 43.1 ± 3
10 | c1ccsc1 [thiophene] + CCCC[n+]1cccc(C)c1.N#C[N-]C#N | 0.89 ± 0.057 | 0.911 ± 0.058 | 0.937 ± 0.059 | 0.955 ± 0.06 | 0.822 ± 0.053 | 0.844 ± 0.054 | 0.868 ± 0.055
11 | C#CCCCCC [1-heptyne] + CCCC[n+]1cccc(C)c1.N#C[N-]C#N | 6.48 ± 0.44 | 6.58 ± 0.45 | 6.67 ± 0.45 | 6.78 ± 0.46 | 6.16 ± 0.42 | 6.27 ± 0.43 | 6.38 ± 0.43
12 | C=CCCCC [hex-1-ene] + CCCC[n+]1cccc(C)c1.N#C[N-]C#N | 19.5 ± 1.3 | 18.7 ± 1.3 | 17.8 ± 1.2 | 17.1 ± 1.2 | 22.4 ± 1.5 | 21.4 ± 1.5 | 20.4 ± 1.4
13 | CCCCCC [hexane] + CCCC[n+]1cccc(C)c1.N#C[N-]C#N | 44.3 ± 3 | 41.3 ± 2.8 | 38.6 ± 2.6 | 36 ± 2.5 | 56.1 ± 3.8 | 51.7 ± 3.5 | 47.8 ± 3.3
14 | C=C(C)c1ccccc1 [(1-methylethenyl)benzene] + CCCC[n+]1cccc(C)c1.N#C[N-]C#N | 2.21 ± 0.15 | 2.33 ± 0.16 | 2.44 ± 0.17 | 2.55 ± 0.17 | – | – | 2.1 ± 0.14
15 | Cc1ccccc1 [toluene] + CCCC[n+]1cccc(C)c1.N#C[N-]C#N | 2.05 ± 0.14 | 2.1 ± 0.14 | 2.15 ± 0.15 | 2.2 ± 0.15 | – | – | 2.01 ± 0.14
16 | CCCCCCC [heptane] + CCCC[n+]1cccc(C)c1.N#C[N-]C#N | 64.3 ± 4.4 | 59.4 ± 4.1 | 55.4 ± 3.8 | 51.7 ± 3.5 | 82.8 ± 5.7 | 75.7 ± 5.2 | 69.9 ± 4.8
17 | O=C1CCCCC1 [cyclohexanone] + CCCC[n+]1cccc(C)c1.N#C[N-]C#N | 0.928 ± 0.059 | 0.96 ± 0.06 | 0.988 ± 0.062 | 1.01 ± 0.06 | – | – | –
18 | C1CCCCC1 [cyclohexane] + CCCC[n+]1cccc(C)c1.N#C[N-]C#N | 18.5 ± 1.3 | 17.4 ± 1.2 | 16.5 ± 1.1 | 15.6 ± 1.1 | 23 ± 1.6 | 21.2 ± 1.4 | 19.8 ± 1.4
19 | c1ccccc1 [benzene] + CCCC[n+]1cccc(C)c1.N#C[N-]C#N | 1.4 ± 0.09 | 1.43 ± 0.09 | 1.47 ± 0.1 | 1.5 ± 0.1 | – | – | 1.37 ± 0.09
20 | COC(C)(C)C [2-methoxy-2-methylpropane] + CCCC[n+]1cccc(C)c1.N#C[N-]C#N | 6.78 ± 0.46 | 6.79 ± 0.46 | 6.8 ± 0.46 | 6.8 ± 0.46 | 6.76 ± 0.46 | 6.77 ± 0.46 | 6.78 ± 0.46
21 | C=CCCCCCC [oct-1-ene] + CCCC[n+]1cccc(C)c1.N#C[N-]C#N | 41.8 ± 2.9 | 39.5 ± 2.7 | 37.6 ± 2.6 | 35.7 ± 2.4 | 49.7 ± 3.4 | 46.7 ± 3.2 | 44 ± 3
22 | CCCCCCCCC [nonane] + CCCC[n+]1cccc(C)c1.N#C[N-]C#N | 134 ± 9 | 122 ± 8 | 112 ± 8 | 103 ± 7 | 182 ± 13 | 162 ± 11 | 148 ± 10
23 | C1COCCO1 [1,4-dioxane] + CCCC[n+]1cccc(C)c1.N#C[N-]C#N | 1.01 ± 0.06 | 1.05 ± 0.07 | 1.08 ± 0.07 | 1.11 ± 0.07 | – | – | –
24 | CCC[N+](=O)[O-] [1-nitropropane] + CCCC[n+]1cccc(C)c1.N#C[N-]C#N | 1.13 ± 0.07 | 1.14 ± 0.07 | 1.15 ± 0.07 | 1.15 ± 0.07 | – | – | –
25 | C=Cc1ccccc1 [styrene] + CCCC[n+]1cccc(C)c1.N#C[N-]C#N | 1.44 ± 0.09 | 1.49 ± 0.1 | 1.54 ± 0.1 | 1.59 ± 0.11 | – | – | 1.39 ± 0.09
26 | Cc1cccc(C)c1 [1,3-dimethylbenzene] + CCCC[n+]1cccc(C)c1.N#C[N-]C#N | 3.06 ± 0.21 | 3.14 ± 0.21 | 3.2 ± 0.22 | 3.28 ± 0.22 | – | – | 3.01 ± 0.2
27 | CCCC(C)=O [pentan-2-one] + CCCC[n+]1cccc(C)c1.N#C[N-]C#N | 1.84 ± 0.12 | 1.89 ± 0.13 | 1.93 ± 0.13 | 1.96 ± 0.13 | – | – | 1.81 ± 0.12
